Measurements from PMC9598282 (Antibiotics, 2022).
Each block holds one compound with its values, some of them ahead of it.

Key:
[1] = test system: P. aeruginosa PAO1; test: microbe, parasite or virus in culture; format: cell-based, Pseudomonas aeruginosa
Description: (§1) The adjuvant properties of the guanidinylated polymyxins were evaluated using the checkerboard assay as previously described. The bacterial solution was prepared as described in the antimicrobial susceptibility assay. The antibiotic of interest and the adjuvant were serially diluted two-fold along the x- and y-axis on a 96-well plate, respectively, resulting in varying concentrations of both agents in each well. Equal volumes of bacterial solution were added to the designated wells. The well consisting of bacterial solution served as the positive control, while the wells containing only media served as the negative control. The plate was then incubated at 37 °C for 18 h. After incubation, an Emax Plus microplate reader (Molecular Devices, Union City, CA, USA) was used to measure the OD at a wavelength of 590 nm to confirm the turbidity. The fractional inhibitory concentration (FIC) index was then determined to establish the relationship between the antibiotic and adjuvant. The FIC index corresponds to the sum of the FICs of the antibiotic and adjuvant. The FIC of each agent is calculated by dividing its MIC when it is used in combination by its MIC when used alone. FIC indices ≤0.5, 0.5 < x ≤ 4 and >4 indicate synergy, additivity and antagonism, respectively.

[2] = test system: P. aeruginosa 114228; test: microbe, parasite or virus in culture; format: cell-based, Pseudomonas aeruginosa; conditions: Pseudomonas aeruginosa, 114228, agent alone, one value per checkerboard plate
Description: as §1

[3] = test system: E. cloacae 121187; test: microbe, parasite or virus in culture; format: cell-based, Enterobacter cloacae; conditions: one value per checkerboard plate
Description: as §1

[4] = test system: P. aeruginosa P259-96918; test: Checkerboard assay; format: cell-based, Pseudomonas aeruginosa; conditions: Pseudomonas aeruginosa, P25996918; agent alone, one value per checkerboard plate
Description: as §1

[5] = test system: P. aeruginosa P262-101856; test: Checkerboard assay; format: cell-based, Pseudomonas aeruginosa; conditions: Pseudomonas aeruginosa, P262101856, agent alone, one value per checkerboard plate
Description: as §1

[6] = test system: P. aeruginosa P264-104354; test: Checkerboard assay; format: cell-based, Pseudomonas aeruginosa; conditions: Pseudomonas aeruginosa, P264104354, agent alone, one value per checkerboard plate
Description: as §1

[7] = test system: P. aeruginosa 101243; test: Checkerboard assay; format: cell-based, Pseudomonas aeruginosa; conditions: one value per checkerboard plate
Description: as §1

[8] = test system: E. coli 107115; test: microbe, parasite or virus in culture; format: cell-based, Escherichia coli; conditions: one value per checkerboard plate
Description: as §1

[9] = test system: E. coli 94393; test: Checkerboard assay; format: cell-based, Escherichia coli; conditions: one value per checkerboard plate
Description: as §1

[10] = test system: E. coli 94474; test: Checkerboard assay; format: cell-based, Escherichia coli; conditions: one value per checkerboard plate
Description: as §1

[11] = test system: A. baumannii AB027; test: microbe, parasite or virus in culture; format: cell-based, Acinetobacter baumannii; conditions: one value per checkerboard plate
Description: as §1

[12] = test system: A. baumannii ATCC 17978; test: microbe, parasite or virus in culture; format: cell-based, Acinetobacter baumannii
Description: as §1

[13] = test system: A. baumannii 92247; test: microbe, parasite or virus in culture; format: cell-based, Acinetobacter baumannii; conditions: one value per checkerboard plate
Description: as §1

[14] = test system: A. baumannii 110193; test: microbe, parasite or virus in culture; format: cell-based, Acinetobacter baumannii; conditions: one value per checkerboard plate
Description: as §1

[15] = test system: A. baumannii AB031; test: Checkerboard assay; format: cell-based, Acinetobacter baumannii; conditions: one value per checkerboard plate
Description: as §1

[16] = test system: K. pneumoniae 113250; test: Checkerboard assay; format: cell-based, Klebsiella pneumoniae; conditions: one value per checkerboard plate
Description: as §1

[17] = test system: K. pneumoniae 113254; test: Checkerboard assay; format: cell-based, Klebsiella pneumoniae; conditions: one value per checkerboard plate
Description: as §1

[18] = test system: E. cloacae 118564; test: Checkerboard assay; format: cell-based, Enterobacter cloacae; conditions: Enterobacter cloacae, 118564; agent alone, one value per checkerboard plate
Description: as §1

[19] = test system: E. coli ATCC 25922; test: microbe, parasite or virus in culture; format: cell-based, Escherichia coli; set-up: key to FIC index antibiotic + GCol / FIC index antibiotic + GPMB: sum of FICs; ≤0.5 synergy, 0.5–4 additivity, >4 antagonism
Description: as §1

[20] = test system: P. aeruginosa PA 107092; test: Time-kill assay; format: cell-based, Pseudomonas aeruginosa; conditions: ceftazidime 8 μg/mL + GCol 2 μM or avibactam 8 μM
Description: To study the time-dependent killing effects of the drug combinations, the time-kill kinetics were assessed. The time-kill assay was performed following the 8 μM (2 μg/mL) concentration of avibactam used in the checkerboard assay. […] This concentration also corresponds to the susceptibility breakpoint of both β-lactams.
For the preparation of the bacterial solution, an overnight grown culture was diluted in 0.85% saline solution and adjusted to 0.5 McFarland turbidity. […] The culture tubes were incubated at 37 °C, shaking at 250 rpm. At the appointed time intervals, a 100-μL aliquot was taken from each tube, serially diluted in phosphate-buffered saline (PBS) and plated on LB agar plates. The plates were incubated at 37 °C, and bacterial colonies were counted after 18 h. The bactericidal or bacteriostatic activity is determined based on the decrease in CFU over the time period. Bactericidal activity corresponds to ≥3 log10 reduction in CFU/mL, while bacteriostatic activity corresponds to <3 log10 reduction in CFU/mL.

- Absolute MIC of antibiotic at 4 μg/mL GCol [1]: 0.0625 µg/mL
- Absolute MIC of antibiotic at 4 μg/mL GPMB [1]: 0.03125 µg/mL
- MIC ([1]; Pseudomonas aeruginosa, PAO1, 18 h, agent alone, one value per checkerboard plate, read-out: MIC alone): 16 µg/mL
- MIC [2]: 16 µg/mL
- MIC ([3]; Enterobacter cloacae, 121187, agent alone): 1 µg/mL
- MIC alone ([3]; agent alone): 2 µg/mL
- MIC [4]: 16 µg/mL
- MIC [5]: 512 µg/mL
- MIC [6]: 16 µg/mL
- MIC ([7]; Pseudomonas aeruginosa, 101243, agent alone): 2 µg/mL
- MIC alone ([7]; agent alone): 4 µg/mL
- MIC ([8]; Escherichia coli, 107115, agent alone): 32 µg/mL
- MIC alone ([8]; agent alone): 16 µg/mL
- MIC ([9]; Escherichia coli, 94393, agent alone): 8 µg/mL
- MIC alone ([9]; agent alone): 4 µg/mL
- MIC ([10]; Escherichia coli, 94474, agent alone): 8 µg/mL
- MIC alone ([10]; agent alone): 4 µg/mL
- MIC ([11]; Acinetobacter baumannii, AB027, agent alone): 2 µg/mL
- MIC alone ([11]; agent alone): 1 µg/mL
- Absolute MIC of antibiotic at 2 μg/mL GCol [12]: 0.0625 µg/mL
- Absolute MIC of antibiotic at 2 μg/mL GPMB [12]: 0.004 µg/mL
- MIC ([12]; Acinetobacter baumannii, ATCC17978, 18 h, agent alone, one value per checkerboard plate, read-out: MIC alone): 2 µg/mL
- MIC ([13]; Acinetobacter baumannii, 92247, agent alone): 1 µg/mL
- MIC alone ([13]; agent alone): 0.5 µg/mL
- MIC ([14]; Acinetobacter baumannii, 110193, agent alone): 2 µg/mL
- MIC alone ([14]; agent alone): 1 µg/mL
- MIC ([15]; Acinetobacter baumannii, AB031, agent alone): 2 µg/mL
- MIC alone ([15]; agent alone): 1 µg/mL
- MIC ([16]; Klebsiella pneumoniae, 113250, agent alone): 16 µg/mL
- MIC alone ([16]; agent alone): 32 µg/mL
- MIC ([17]; Klebsiella pneumoniae, 113254, agent alone): 8 µg/mL
- MIC alone ([17]; agent alone): 16 µg/mL
- MIC [18]: 8 µg/mL
- Absolute MIC of antibiotic at 2 μg/mL GCol [19]: 0.008 µg/mL
- Absolute MIC of antibiotic at 2 μg/mL GPMB [19]: 0.008 µg/mL
- MIC ([19]; Escherichia coli, ATCC25922, 18 h, agent alone, one value per checkerboard plate, read-out: MIC alone): 2 µg/mL
SMILES: CO[C@H]1/C=C/O[C@@]2(C)Oc3c(C)c(O)c4c(O)c(c(/C=N/N5CCN(C)CC5)c(O)c4c3C2=O)NC(=O)/C(C)=C\C=C\[C@H](C)[C@H](O)[C@@H](C)[C@@H](O)[C@@H](C)[C@H](OC(C)=O)[C@@H]1C [Rifampicin]
- Fold-potentiation of antibiotic ([1]; at 4 μg/mL GCol): 256
- Fold-potentiation of antibiotic ([1]; at 4 μg/mL GPMB): 512
- FIC index antibiotic + GPMB [12]: 0.066
- Fold-potentiation of antibiotic ([12]; at 2 μg/mL GCol): 32
- Fold-potentiation of antibiotic ([12]; at 2 μg/mL GPMB): 512
- FIC index antibiotic + GCol [19]: 0.023
- FIC index antibiotic + GPMB [19]: 0.07
- Fold-potentiation of antibiotic ([19]; at 2 μg/mL GCol): 256
- Fold-potentiation of antibiotic ([19]; at 2 μg/mL GPMB): 256

SMILES: NC(=O)[C@@H]1CC[C@@H]2CN1C(=O)N2OS(=O)(=O)O [avibactam]
- time-kill effect of dual therapy with ceftazidime [20]: bacteriostatic effect
